Data from the supplement of paper PMC11208160.

Test: recombinant UMI read abundance after kanamycin selection (control-corrected) (log10(CPM+1)); higher = more efficient recombination; extreme values may be limits of the assay; sequences stand for … in AGTGCAGAGAAAATCGGCCAGTTTTCTCTGCCTGCAGTCCGCATGCCGTGGGACCCCTTGGGTTCTAACCTGTTGCCTAGATTTATGCAGCGGACTGCCTTTCTCCCAAAGTGATAAACCGG…AGGTTGGTTTCACT; site = the 11-nt donor
How it was run: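 Counts of recombinant UMIs were reported as log10(CPM+1). Before that, they were converted to CPM, averaged over replicates and scaled using control-derived factors. They came from PCR across the donor–target junction after Escherichia coli carrying the pair library and target plasmid was plated on IPTG (0.07 mM) plus kanamycin, or unselected, in two replicates each.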
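Note: IS621 bridge recombinase in Escherichia coli cells against a fixed T5 target plasmid.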

GACTGCACATGGACCGGTTTTCCCGGTAATCCGTATTTGGT (site GACTGCACTAC)
recombinant UMI read abundance (log10): 0.857

GACTTAGCATGGACCGGTTTTCCCGGTAATCCGTATTTGGT (site GACTTAGCTAC)
recombinant UMI read abundance (log10): 0.191

GAGAAACCATGGACCGGTTTTCCCGGTAATCCGTATTTGGT (site GAAAAACCTAC)
recombinant UMI read abundance (log10): 0

GAGAAACCATGGACCGGTTTTCCCGGTAATCCGTATTTGGT (site GACAAACCTAC)
recombinant UMI read abundance (log10): 0

GAGAAACCATGGACCGGTTTTCCCGGTAATCCGTATTTGGT (site GAGAAACCTAC)
recombinant UMI read abundance (log10): 0

GAGAAACCATGGACCGGTTTTCCCGGTAATCCGTATTTGGT (site GATAAACCTAC)
recombinant UMI read abundance (log10): 0

GAGAACCCATGGACCGGTTTTCCCGGTAATCCGTATTTGTC (site GAGAACCCTGA)
recombinant UMI read abundance (log10): 0

GAGAAGCCATGGACCGGTTTTCCCGGTAATCCGTATTTGAC (site GAGAAGCCTGT)
recombinant UMI read abundance (log10): 0

GAGACAACATGGACCGGTTTTCCCGGTAATCCGTATTTGAA (site GAGACAACTTT)
recombinant UMI read abundance (log10): 0.852

GAGACGACATGGACCGGTTTTCCCGGTAATCCGTATTTGGG (site GAGACGACTCC)
recombinant UMI read abundance (log10): 0.501

GAGACGACATGGACCGGTTTTCCCGGTAATCCGTATTTGTC (site GAGACGACTGA)
recombinant UMI read abundance (log10): 1.94

GAGACTACATGGACCGGTTTTCCCGGTAATCCGTATTTGAA (site GAGACTACTTT)
recombinant UMI read abundance (log10): 0.551

GAGATAACATGGACCGGTTTTCCCGGTAATCCGTATTTGCG (site GAGATAACTCG)
recombinant UMI read abundance (log10): 1.56

GAGATCACATGGACCGGTTTTCCCGGTAATCCGTATTTGGT (site GAGATCACTAC)
recombinant UMI read abundance (log10): 1.37

GAGATGACATGGACCGGTTTTCCCGGTAATCCGTATTTGCA (site GAGATGACTTG)
recombinant UMI read abundance (log10): 2.52

GAGCAATCATGGACCGGTTTTCCCGGTAATCCGTATTTGTT (site GAGCAATCTAA)
recombinant UMI read abundance (log10): 2.77

GAGCATGCATGGACCGGTTTTCCCGGTAATCCGTATTTGGT (site GAGCATGCTAC)
recombinant UMI read abundance (log10): 1.5

GAGCATGCATGGACCGGTTTTCCCGGTAATCCGTATTTGGT (site GCGCATGCTAC)
recombinant UMI read abundance (log10): 0.474

GAGCATGCATGGACCGGTTTTCCCGGTAATCCGTATTTGGT (site GGGCATGCTAC)
recombinant UMI read abundance (log10): 0.422

GAGCATGCATGGACCGGTTTTCCCGGTAATCCGTATTTGGT (site GTGCATGCTAC)
recombinant UMI read abundance (log10): 0.162

GAGCCGGCATGGACCGGTTTTCCCGGTAATCCGTATTTGGT (site GAGCCGGCTAC)
recombinant UMI read abundance (log10): 0.57

GAGCCTGCATGGACCGGTTTTCCCGGTAATCCGTATTTGGT (site GAGCCTGCTAC)
recombinant UMI read abundance (log10): 0.482

GAGCGTTCATGGACCGGTTTTCCCGGTAATCCGTATTTGCG (site GAGCGTTCTCG)
recombinant UMI read abundance (log10): 1.82

GAGCTAACATGGACCGGTTTTCCCGGTAATCCGTATTTGAT (site GAGCTAACTAT)
recombinant UMI read abundance (log10): 2.46

GAGCTAACATGGACCGGTTTTCCCGGTAATCCGTATTTGAT (site GAGCTCACTAT)
recombinant UMI read abundance (log10): 0.0205

GAGCTAACATGGACCGGTTTTCCCGGTAATCCGTATTTGAT (site GAGCTGACTAT)
recombinant UMI read abundance (log10): 0.034

GAGCTAACATGGACCGGTTTTCCCGGTAATCCGTATTTGAT (site GAGCTTACTAT)
recombinant UMI read abundance (log10): 0.00927

GAGCTCACATGGACCGGTTTTCCCGGTAATCCGTATTTGCT (site GAGCTCACTAA)
recombinant UMI read abundance (log10): 1.28

GAGCTCACATGGACCGGTTTTCCCGGTAATCCGTATTTGCT (site GAGCTCACTAC)
recombinant UMI read abundance (log10): 0.00315

GAGCTCACATGGACCGGTTTTCCCGGTAATCCGTATTTGCT (site GAGCTCACTAG)
recombinant UMI read abundance (log10): 2.24

GAGCTCACATGGACCGGTTTTCCCGGTAATCCGTATTTGCT (site GAGCTCACTAT)
recombinant UMI read abundance (log10): 1.14

GAGCTGACATGGACCGGTTTTCCCGGTAATCCGTATTTGAT (site GAGCTAACTAT)
recombinant UMI read abundance (log10): 2.08

GAGCTGACATGGACCGGTTTTCCCGGTAATCCGTATTTGAT (site GAGCTCACTAT)
recombinant UMI read abundance (log10): 0.0113

GAGCTGACATGGACCGGTTTTCCCGGTAATCCGTATTTGAT (site GAGCTGACTAT)
recombinant UMI read abundance (log10): 2.09

GAGCTGACATGGACCGGTTTTCCCGGTAATCCGTATTTGAT (site GAGCTTACTAT)
recombinant UMI read abundance (log10): 0.154

GAGCTGCCATGGACCGGTTTTCCCGGTAATCCGTATTTGCG (site GAGCTGCCTCG)
recombinant UMI read abundance (log10): 0.232

GAGGAACCATGGACCGGTTTTCCCGGTAATCCGTATTTGTT (site GAGGAACCTAA)
recombinant UMI read abundance (log10): 0

GAGGATTCATGGACCGGTTTTCCCGGTAATCCGTATTTGTT (site GAAGATTCTAA)
recombinant UMI read abundance (log10): 1.46

GAGGATTCATGGACCGGTTTTCCCGGTAATCCGTATTTGTT (site GACGATTCTAA)
recombinant UMI read abundance (log10): 0.365

GAGGATTCATGGACCGGTTTTCCCGGTAATCCGTATTTGTT (site GAGGATTCTAA)
recombinant UMI read abundance (log10): 2.83

GAGGATTCATGGACCGGTTTTCCCGGTAATCCGTATTTGTT (site GATGATTCTAA)
recombinant UMI read abundance (log10): 0.0156

GAGGGGCCATGGACCGGTTTTCCCGGTAATCCGTATTTGGC (site GAGGGGCCTGC)
recombinant UMI read abundance (log10): 0

GAGTACCCATGGACCGGTTTTCCCGGTAATCCGTATTTGTT (site GAGTACCCTAA)
recombinant UMI read abundance (log10): 0.0215

GAGTGCGCATGGACCGGTTTTCCCGGTAATCCGTATTTGTC (site GAGTGCGCTGA)
recombinant UMI read abundance (log10): 2.71

GAGTGGCCATGGACCGGTTTTCCCGGTAATCCGTATTTGCA (site GAATGGCCTTG)
recombinant UMI read abundance (log10): 0

GAGTGGCCATGGACCGGTTTTCCCGGTAATCCGTATTTGCA (site GACTGGCCTTG)
recombinant UMI read abundance (log10): 0

GAGTGGCCATGGACCGGTTTTCCCGGTAATCCGTATTTGCA (site GAGTGGCCTTG)
recombinant UMI read abundance (log10): 0

GAGTGGCCATGGACCGGTTTTCCCGGTAATCCGTATTTGCA (site GATTGGCCTTG)
recombinant UMI read abundance (log10): 0

GAGTTGGCATGGACCGGTTTTCCCGGTAATCCGTATTTGTA (site GAGTTGGCTTA)
recombinant UMI read abundance (log10): 2.18

GATAAGGCATGGACCGGTTTTCCCGGTAATCCGTATTTGCG (site GATAAGGCTCG)
recombinant UMI read abundance (log10): 1.83

GATAAGGCATGGACCGGTTTTCCCGGTAATCCGTATTTGGC (site GATAAGGCTGC)
recombinant UMI read abundance (log10): 1.3

GATATGCCATGGACCGGTTTTCCCGGTAATCCGTATTTGCT (site GATATGCCTAG)
recombinant UMI read abundance (log10): 0

GATCCACCATGGACCGGTTTTCCCGGTAATCCGTATTTGGT (site GATCCACCTAC)
recombinant UMI read abundance (log10): 0.0102

GATCGACCATGGACCGGTTTTCCCGGTAATCCGTATTTGTC (site GATCGACCTGA)
recombinant UMI read abundance (log10): 0

GATCGAGCATGGACCGGTTTTCCCGGTAATCCGTATTTGCA (site GATCGAGCTTG)
recombinant UMI read abundance (log10): 1.04

GATCGAGCATGGACCGGTTTTCCCGGTAATCCGTATTTGCA (site GCTCGAGCTTG)
recombinant UMI read abundance (log10): 1.17

GATCGAGCATGGACCGGTTTTCCCGGTAATCCGTATTTGCA (site GGTCGAGCTTG)
recombinant UMI read abundance (log10): 1.15

GATCGAGCATGGACCGGTTTTCCCGGTAATCCGTATTTGCA (site GTTCGAGCTTG)
recombinant UMI read abundance (log10): 1.58

GATCGTGCATGGACCGGTTTTCCCGGTAATCCGTATTTGGC (site GATCGTGCTGC)
recombinant UMI read abundance (log10): 1.18

GATCTAACATGGACCGGTTTTCCCGGTAATCCGTATTTGTC (site GATCTAACTGA)
recombinant UMI read abundance (log10): 0

GATCTGCCATGGACCGGTTTTCCCGGTAATCCGTATTTGAT (site GATCTGCCTAT)
recombinant UMI read abundance (log10): 0.0121

GATGAGACATGGACCGGTTTTCCCGGTAATCCGTATTTGAA (site GATGAGACTTT)
recombinant UMI read abundance (log10): 1.82

GATTAACCATGGACCGGTTTTCCCGGTAATCCGTATTTGCT (site GATTAACCTAG)
recombinant UMI read abundance (log10): 0

GATTAACCATGGACCGGTTTTCCCGGTAATCCGTATTTGCT (site GATTACCCTAG)
recombinant UMI read abundance (log10): 0

GATTAACCATGGACCGGTTTTCCCGGTAATCCGTATTTGCT (site GATTAGCCTAG)
recombinant UMI read abundance (log10): 0

GATTAACCATGGACCGGTTTTCCCGGTAATCCGTATTTGCT (site GATTATCCTAG)
recombinant UMI read abundance (log10): 0.0295

GATTAGCCATGGACCGGTTTTCCCGGTAATCCGTATTTGCT (site GATTAACCTAG)
recombinant UMI read abundance (log10): 0

GATTAGCCATGGACCGGTTTTCCCGGTAATCCGTATTTGCT (site GATTACCCTAG)
recombinant UMI read abundance (log10): 0

GATTAGCCATGGACCGGTTTTCCCGGTAATCCGTATTTGCT (site GATTAGCCTAG)
recombinant UMI read abundance (log10): 0

GATTAGCCATGGACCGGTTTTCCCGGTAATCCGTATTTGCT (site GATTATCCTAG)
recombinant UMI read abundance (log10): 0

GATTATACATGGACCGGTTTTCCCGGTAATCCGTATTTGCT (site GATTATACTAG)
recombinant UMI read abundance (log10): 1.87

GATTATACATGGACCGGTTTTCCCGGTAATCCGTATTTGCT (site GATTATCCTAG)
recombinant UMI read abundance (log10): 0

GATTATACATGGACCGGTTTTCCCGGTAATCCGTATTTGCT (site GATTATGCTAG)
recombinant UMI read abundance (log10): 0

GATTATACATGGACCGGTTTTCCCGGTAATCCGTATTTGCT (site GATTATTCTAG)
recombinant UMI read abundance (log10): 0

GATTATCCATGGACCGGTTTTCCCGGTAATCCGTATTTGCA (site GATTATCCTAG)
recombinant UMI read abundance (log10): 0
